From patent publication US6864262B2, “1-(2-m-methanesulfonamidophenylethyl)-4-(m-trifluoromethylphenyl) piperazine and pharmaceutically acceptable salts and solvents thereof” (Eli Lilly and Company, priority 2000, dated 2005)
pKi: −log10 of the molar value.

What was measured:
5-HT1B [1] = target: T1, 5-HT1B (Homo sapiens, UniProt P28222); assay: Binding affinity at cloned human serotonin receptors
T1 construct: expressed in transfected cells

5-HT7 = target: T2, 5-HT7 (Homo sapiens, UniProt P34969); assay: as above
T2 construct: expressed in transfected cells

5-HT1E = target: T3, 5-HT1E (Homo sapiens, UniProt P28566); assay: as above
T3 construct: expressed in transfected cells

5-HT1F [2] = target: T4, 5-HT1F (Homo sapiens, UniProt P30939); assay: as above
T4 construct: expressed in transfected cells
T4 sequence (P30939 1-366): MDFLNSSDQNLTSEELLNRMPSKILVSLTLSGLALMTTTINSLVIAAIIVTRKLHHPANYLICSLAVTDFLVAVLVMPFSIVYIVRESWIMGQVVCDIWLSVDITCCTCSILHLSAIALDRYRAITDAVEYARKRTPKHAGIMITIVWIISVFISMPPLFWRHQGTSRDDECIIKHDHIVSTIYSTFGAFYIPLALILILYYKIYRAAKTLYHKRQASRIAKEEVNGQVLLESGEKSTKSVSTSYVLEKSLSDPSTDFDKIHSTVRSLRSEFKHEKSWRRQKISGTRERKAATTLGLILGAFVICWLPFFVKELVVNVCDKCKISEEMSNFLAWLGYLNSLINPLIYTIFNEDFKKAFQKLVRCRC

5-HT1D [3] = target: T5, 5-HT1D (Homo sapiens, UniProt P28221); assay: as above
T5 construct: expressed in transfected cells

5-HT1A [4] = target: T6, 5-HT1A (Homo sapiens, UniProt P08908); assay: as above
T6 construct: expressed in transfected cells
T6 sequence (P08908 1-422): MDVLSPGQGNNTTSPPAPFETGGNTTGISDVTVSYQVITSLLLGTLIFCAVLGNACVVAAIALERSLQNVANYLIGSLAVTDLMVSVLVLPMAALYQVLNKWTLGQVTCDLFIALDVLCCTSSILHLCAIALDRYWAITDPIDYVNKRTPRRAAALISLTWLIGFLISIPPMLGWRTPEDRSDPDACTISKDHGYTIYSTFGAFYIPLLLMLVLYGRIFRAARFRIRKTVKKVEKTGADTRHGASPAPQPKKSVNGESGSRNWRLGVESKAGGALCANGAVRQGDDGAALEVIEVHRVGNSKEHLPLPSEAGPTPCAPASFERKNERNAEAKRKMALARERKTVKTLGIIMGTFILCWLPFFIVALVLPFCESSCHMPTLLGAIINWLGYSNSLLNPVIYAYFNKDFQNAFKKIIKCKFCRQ

Adult female cats = assay: Transvesical cystometrograms and periurethral EMG in anesthetized cats, acetic acid infusion
Experimental: Adult female cats were anesthetized with alpha chloralose (50-75 mg/kg i.v.) One catheter was inserted into the carotid artery for measuring systemic blood pressure and heart rate. A second catheter was inserted in the radial vein for administering drugs. Following a midline laparotomy, the bladder was cannulated through the dome to allow infusion of fluids and recording of intravesical pressure. The urethra remained patent to allow expulsion of fluids during reflex micturition.
Transvesical cystometrograms (CMGs) were recorded by emptying the bladder, beginning infusion (0.5 ml/min) with saline, and noting the volume at which fluid release and bladder contraction occurred (i.e. micturition). This volume is defined as bladder capacity. EMG activity was recorded from the periurethral musculature with bipolar hook electrodes placed within 0.5 cm of the urethral meatus via an intravaginal approach. After establishing bladder capacity and EMG activity under conditions of saline infusion, the infusion cannula was switched to infuse 0.5% acetic acid solution and cystometry repeated.
Following cystometry, the bladder was allowed to continuously fill, which produced rhythmic bladder contractions accompanied by fluid release. During this time of rhythmic bladder activity, vehicle or drug was administered. Within 5 minutes, the bladder was emptied; another CMG was performed, and bladder capacity and EMG activity were again measured. The bladder was then continuously filled to produce rhythmic contractions with fluid release, and the frequency of these rhythmic contractions was measured over a fifteen minute period to record drug effects on contraction frequency. This procedure was repeated with increasing doses of drug to produce a cumulative dose response curve.
All other drugs were dissolved in saline.

5-HT1B [5] = target: T1, 5-HT1B; assay: Functional data in cloned human serotonin receptors; assay type: biochemical
5-HT1A [6] = target: T6, 5-HT1A; assay: as above; assay type: biochemical
5-HT1F [7] = target: T4, 5-HT1F; assay: as above; assay type: biochemical
5-HT1D [8] = target: T5, 5-HT1D; assay: as above; assay type: biochemical
[9] = anesthetized cat, i.v., cumulative doses, acetic acid infusion
[10] = vs 1-(2-p-methanesulfonamidophenylethyl)-4-(m-trifluoromethylphenyl)piperazine
[11] = listed as compound of formula I

T1 sequence (P28222 whole entry): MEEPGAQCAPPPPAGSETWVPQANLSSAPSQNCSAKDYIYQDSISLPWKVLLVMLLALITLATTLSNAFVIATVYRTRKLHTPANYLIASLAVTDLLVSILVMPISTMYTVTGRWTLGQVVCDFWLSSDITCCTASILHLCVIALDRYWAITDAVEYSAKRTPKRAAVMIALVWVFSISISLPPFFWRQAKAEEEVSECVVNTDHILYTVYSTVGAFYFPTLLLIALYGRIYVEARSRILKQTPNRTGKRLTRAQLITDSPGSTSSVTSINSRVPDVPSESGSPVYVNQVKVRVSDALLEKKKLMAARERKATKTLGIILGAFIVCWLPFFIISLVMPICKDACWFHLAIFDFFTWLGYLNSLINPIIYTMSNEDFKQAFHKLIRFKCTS
T5 sequence (P28221 whole entry): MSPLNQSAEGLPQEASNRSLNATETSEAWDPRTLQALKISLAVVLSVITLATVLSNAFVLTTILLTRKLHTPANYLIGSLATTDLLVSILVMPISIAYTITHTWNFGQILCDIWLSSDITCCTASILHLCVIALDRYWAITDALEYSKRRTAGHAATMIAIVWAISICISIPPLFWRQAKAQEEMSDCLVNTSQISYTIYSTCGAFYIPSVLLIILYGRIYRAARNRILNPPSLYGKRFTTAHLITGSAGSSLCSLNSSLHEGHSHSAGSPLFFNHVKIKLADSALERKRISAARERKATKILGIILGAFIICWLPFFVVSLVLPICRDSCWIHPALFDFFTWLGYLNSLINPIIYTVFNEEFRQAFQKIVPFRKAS
T2 sequence (P34969 whole entry): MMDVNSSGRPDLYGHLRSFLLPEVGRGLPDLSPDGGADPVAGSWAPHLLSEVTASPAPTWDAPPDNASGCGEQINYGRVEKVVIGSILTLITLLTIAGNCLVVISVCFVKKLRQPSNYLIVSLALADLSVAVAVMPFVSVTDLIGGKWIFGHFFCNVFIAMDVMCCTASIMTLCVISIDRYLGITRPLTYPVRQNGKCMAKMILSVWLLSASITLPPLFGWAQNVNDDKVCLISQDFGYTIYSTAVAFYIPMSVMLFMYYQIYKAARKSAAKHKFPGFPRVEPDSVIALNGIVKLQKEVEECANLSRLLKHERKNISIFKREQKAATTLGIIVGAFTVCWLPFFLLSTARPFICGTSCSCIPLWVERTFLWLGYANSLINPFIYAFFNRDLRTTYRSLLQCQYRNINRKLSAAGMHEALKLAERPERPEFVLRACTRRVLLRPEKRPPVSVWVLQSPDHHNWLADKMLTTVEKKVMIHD
T3 sequence (P28566 whole entry): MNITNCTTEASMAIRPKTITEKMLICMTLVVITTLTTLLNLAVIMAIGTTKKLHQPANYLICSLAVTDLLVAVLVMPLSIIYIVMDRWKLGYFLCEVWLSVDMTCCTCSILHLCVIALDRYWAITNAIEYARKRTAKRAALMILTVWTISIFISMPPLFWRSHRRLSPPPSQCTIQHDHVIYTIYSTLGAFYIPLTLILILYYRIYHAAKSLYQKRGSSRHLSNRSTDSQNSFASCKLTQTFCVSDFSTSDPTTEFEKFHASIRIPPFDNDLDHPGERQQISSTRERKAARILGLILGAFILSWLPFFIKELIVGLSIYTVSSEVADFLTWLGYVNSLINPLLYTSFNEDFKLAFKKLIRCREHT

CS(=O)(=O)Nc1cccc(CCN2CCN(c3cccc(C(F)(F)F)c3)CC2)c1.O=C(O)C(=O)O
melting point: 164 °C

CS(=O)(=O)Nc1cccc(CCN2CCN(c3cccc(C(F)(F)F)c3)CC2)c1.Cl
melting point: 198 to 199 °C

CS(=O)(=O)Nc1ccc(CCN2CCN(c3cccc(C(F)(F)F)c3)CC2)cc1 [1-(2-p-methanesulfonamidophenylethyl)-4-(m-trifluoromethylphenyl)piperazine, reference compound]
pKi (5-HT1B [1]): 8.02
pKi (5-HT7): 7.35
% displacement, 5-HT1E (5-HT1E; @ 1000 nM): 5% @ 1000
% displacement, 5-HT1F (5-HT1F [2]; @ 1000 nM): 14% @ 1000
pKi (5-HT1D [3]): 7.26
pKi (5-HT1A [4]): 8.46

COc1ccc(CNC(=O)/C=C/c2ccc3[nH]cc(CCN(C)C)c3c2)cc1 [GR46611, reference compound]
bladder capacity (Adult female cats; [9]): dose-dependent increases
external urethral sphincter (EUS) EMG activity (Adult female cats; [9]): increase
frequency of micturition contractions (Adult female cats; [9]): reduced

COc1ccc(NC(=O)c2ccc(-c3ccc(-c4noc(C)n4)cc3C)cc2)cc1N1CCN(C)CC1 [GR127935, reference compound]
bladder capacity (Adult female cats; [9]): dose-dependent increases
external urethral sphincter (EUS) EMG activity (Adult female cats; [9]): increase
frequency of micturition contractions (Adult female cats; [9]): reduced

CS(=O)(=O)Nc1cccc(CCN2CCN(c3cccc(C(F)(F)F)c3)CC2)c1 [LY217101, 1-(2-m-methanesulfonamidophenylethyl)-4-(m-trifluoromethylphenyl)piperazine]
pKi (5-HT1B [1]): 8.77
fold higher affinity for the 5-HT1B receptor than the p-regioisomer (5-HT1B [1]; [10]): 56 fold
pKi (5-HT7): 6.98
pKi (5-HT1E): 5.41
Emax (5-HT1B [5]): 88.2%
functional character at 5-HT1B (5-HT1B [5]; listed as Formula 1): Agonist
functional character at 5-HT1B (5-HT1B [5]; [11]): agonist
functional character at 5-HT1A (5-HT1A [6]; listed as Formula 1): Agonist
functional character at 5-HT1A (5-HT1A [6]; [11]): agonist
Emax (5-HT1F [7]): 95.5%
pKi (5-HT1F [2]): 7.49
EMG activity (Adult female cats; LY217101 given after WAY100635): no longer produces
bladder capacity (Adult female cats; LY217101 given after WAY100635): increase
bradycardia (Adult female cats; LY217101 given after WAY100635): no longer produces
frequency of micturition contractions (Adult female cats; LY217101 given after WAY100635): continued to reduce
hypotension (Adult female cats; LY217101 given after WAY100635): no longer produces
bradycardia (Adult female cats; anesthetized cat, i.v.): induced
hypotension (Adult female cats; anesthetized cat, i.v.): induced
bladder capacity (Adult female cats; [9]): dose-dependent increases
external urethral sphincter (EUS) EMG activity (Adult female cats; [9]): increase
frequency of micturition contractions (Adult female cats; [9]): reduced
pKi (5-HT1D [3]): 8.92
fold higher affinity for the 5-HT1D receptor than the p-regioisomer (5-HT1D [3]; [10]): 45 fold
pKi (5-HT1A [4]): 9.02
Emax (5-HT1D [8]): 93.4%
functional character at 5-HT1D (5-HT1D [8]; listed as Formula 1): Agonist
functional character at 5-HT1D (5-HT1D [8]; [11]): agonist

COc1ccccc1N1CCN(CCN(C(=O)C2CCCCC2)c2ccccn2)CC1 [WAY100635, reference compound]
reversal of hypotension, bradycardia, decrease in contraction frequency and increase in EMG activity induced by the compound of Formula I (Adult female cats; anesthetized cat, WAY100635 given after compound of Formula I): partially reversed

CN(C)CCc1c[nH]c2ccc(C[C@H]3COC(=O)N3)cc12 [zolmitriptan, reference compound]
bladder capacity (Adult female cats; [9]): dose-dependent increases
external urethral sphincter (EUS) EMG activity (Adult female cats; [9]): increase
frequency of micturition contractions (Adult female cats; [9]): reduced
